Reference: the supplement of paper PMC10307832

Assays:
Experiment in all cases: relative viability (nuclei count vs DMSO), 5 days (fraction); higher = more cells survive
NCI-H1915 = system: NCI-H1915
Procedure, shortened: (§1)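 After 5 days of treatment, lung cancer cells in 1536-well plates were fixed and stained in a single step (final 0.05% Triton X-100, 1% formaldehyde, 1 ug/ml Hoechst) and their nuclei counted on 4× images. Treatment had been applied by pin tool the day after seeding as one drug alone or as a fixed anchor-drug dose with five library-drug doses (not always all listed) in √10 steps. Relative viability is the nuclei count of treated wells divided by that of vehicle wells, and values are medians of duplicate plates.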

NCI-H1944 = system: NCI-H1944
Procedure, shortened: as §1

NCI-H2023 = system: NCI-H2023
Procedure, shortened: as §1

NCI-H2126 = system: NCI-H2126
Procedure, shortened: as §1

NCI-H2170 = system: NCI-H2170
Procedure, shortened: as §1

NCI-H23 = system: NCI-H23
Procedure, shortened: as §1

NCI-H322M = system: NCI-H322M
Procedure, shortened: as §1

NCI-H441 = system: NCI-H441
Procedure, shortened: as §1

NCI-H460 = system: NCI-H460
Procedure, shortened: as §1

NCI-H650 = system: NCI-H650
Procedure, shortened: as §1

PC-3 [JPC-3] = system: PC-3 [JPC-3]
Procedure, shortened: as §1

SK-LU-1 = system: SK-LU-1
Procedure, shortened: as §1

## O=C(O)CCCCC(CCSCc1ccccc1)SCc1ccccc1 (configuration not stated) [CPI-613] + Cc1nc(NC(=O)N2CCC[C@H]2C(N)=O)sc1-c1ccnc(C(C)(C)C(F)(F)F)c1 [Alpelisib] (partner 2 µM)
NCI-H1915; first compound 158.11 µM
  relative viability: 0.925
NCI-H1915; first compound 500 µM
  relative viability: 0.926
NCI-H1944; first compound 5 µM
  relative viability: 0.841
NCI-H1944; first compound 15.81 µM
  relative viability: 0.843
NCI-H1944; first compound 50 µM
  relative viability: 0.778
NCI-H1944; first compound 158.11 µM
  relative viability: 0.803
NCI-H1944; first compound 500 µM
  relative viability: 0.743
NCI-H2023; first compound 5 µM
  relative viability: 0.624
NCI-H2023; first compound 15.81 µM
  relative viability: 0.576
NCI-H2023; first compound 50 µM
  relative viability: 0.548
NCI-H2023; first compound 158.11 µM
  relative viability: 0.0809
NCI-H2023; first compound 500 µM
  relative viability: 0.0084
NCI-H2126; first compound 5 µM
  relative viability: 0.755
NCI-H2126; first compound 15.81 µM
  relative viability: 0.815
NCI-H2126; first compound 50 µM
  relative viability: 0.78
NCI-H2126; first compound 158.11 µM
  relative viability: 0.749
NCI-H2126; first compound 500 µM
  relative viability: 0.747
NCI-H2170; first compound 5 µM
  relative viability: 0.808
NCI-H2170; first compound 15.81 µM
  relative viability: 0.766
NCI-H2170; first compound 50 µM
  relative viability: 0.796
NCI-H2170; first compound 158.11 µM
  relative viability: 0.547
NCI-H2170; first compound 500 µM
  relative viability: 0.483
NCI-H23; first compound 5 µM
  relative viability: 0.684
NCI-H23; first compound 15.81 µM
  relative viability: 0.604
NCI-H23; first compound 50 µM
  relative viability: 0.685
NCI-H23; first compound 158.11 µM
  relative viability: 0.143
NCI-H23; first compound 500 µM
  relative viability: 0.0565
NCI-H322M; first compound 5 µM
  relative viability: 0.746
NCI-H322M; first compound 15.81 µM
  relative viability: 0.721
NCI-H322M; first compound 50 µM
  relative viability: 0.729
NCI-H322M; first compound 158.11 µM
  relative viability: 0.416
NCI-H322M; first compound 500 µM
  relative viability: 0.757
NCI-H441; first compound 5 µM
  relative viability: 0.692
NCI-H441; first compound 15.81 µM
  relative viability: 1.01
NCI-H441; first compound 50 µM
  relative viability: 0.573
NCI-H441; first compound 158.11 µM
  relative viability: 0.216
NCI-H441; first compound 500 µM
  relative viability: 0.007
NCI-H460; first compound 5 µM
  relative viability: 0.426
NCI-H460; first compound 15.81 µM
  relative viability: 0.496
NCI-H460; first compound 50 µM
  relative viability: 0.433
NCI-H460; first compound 158.11 µM
  relative viability: 0.0466
NCI-H460; first compound 500 µM
  relative viability: 0.006
NCI-H650; first compound 5 µM
  relative viability: 1.18
NCI-H650; first compound 15.81 µM
  relative viability: 1.06
NCI-H650; first compound 50 µM
  relative viability: 1.06
NCI-H650; first compound 158.11 µM
  relative viability: 0.931
NCI-H650; first compound 500 µM
  relative viability: 0.892
PC-3 [JPC-3]; first compound 5 µM
  relative viability: 1.05
PC-3 [JPC-3]; first compound 15.81 µM
  relative viability: 0.943
PC-3 [JPC-3]; first compound 50 µM
  relative viability: 0.934
PC-3 [JPC-3]; first compound 158.11 µM
  relative viability: 0.921
PC-3 [JPC-3]; first compound 500 µM
  relative viability: 0.903
SK-LU-1; first compound 5 µM
  relative viability: 1.05
SK-LU-1; first compound 15.81 µM
  relative viability: 0.849
SK-LU-1; first compound 50 µM
  relative viability: 0.57
SK-LU-1; first compound 158.11 µM
  relative viability: 0.175
SK-LU-1; first compound 500 µM
  relative viability: 0.114
